According to patent US20220339143A1, “TAK-925 FOR USE IN TREATING NARCOLEPSY” (Takeda Pharmaceutical Company Limited, priority 2019, published 2022):
Where two headings read alike, the source gives them in different places.

Key:
[1] = Single dose PK in patients with narcolepsy (Cohorts 5, 6 and 7), plasma; type: in vivo, human; conditions: for Tmax / AUC / clearance / concentration at 9 h / AUC(0-inf) / AUC(0-t) / Cmax / Vd / concentration at 1 h / concentration at 2 h / concentration at 4 h / concentration at 6 h: human, plasma; for AUC: read-out: AUC24
Experimental: (§1) This study investigates (i) the safety and tolerability of Compound A (methyl (2R,3S)-3-((methylsulfonyl)amino)-2-(((cis-4-phenylcyclohexyl)oxy)methyl)piperidine-1-carboxylate) when a single dose given as a 9 hour continuous IV infusion is administered to healthy adults, healthy elderly subjects and patients with narcolepsy type 1 (NT1); (ii) the pharmacokinetics of Compound A when a single dose given as a 9 hour continuous IV infusion is administered to healthy adults, healthy elderly subjects and patients with narcolepsy type 1; and (iii) the pharmacodynamics (PD) effects of Compound A, primarily by evaluation of the sleep latency on MWT when a single dose given as a 9 hour continuous IV infusion is administered to patients with narcolepsy type 1.
In Part 2, NT1 patients received a single dose of Compound A or placebo administered as a continuous IV infusion over a 9-hour period during the day. A 40-minute Maintenance of Wakefulness Test (MWT) was conducted 4 times during the continuous IV infusion to assess effects on wakefulness in soporific conditions at 2, 4, 6 and 8 hours from start of infusion. Three cohorts of patients were enrolled (n=14 total).
Pharmacokinetics: Concentrations of Compound A in plasma, and CSF, and pharmacokinetics parameters.
On average, the time to reach the plateau appeared to be approximately 4 hours after the start of infusion. […] After switching off the IV infusion, Compound A plasma concentrations declined rapidly and in a biphasic manner with a mean terminal disposition phase t1/2z ranging approximately from 3.5 to 4.1 hours across the doses.

[2] = system: patients with narcolepsy type 1 (NT1); assay: Safety/tolerability of a single dose given as 9 hour continuous IV infusion in NT1 patients; type: in vivo, human
Experimental: as §1
Safety and tolerability: adverse events, vital signs, 12-lead ECG and clinical laboratory tests (hematological tests, blood biochemical tests and urinalysis)
To investigate the safety of Compound A, the treatment-emergent adverse events (TEAEs) for healthy subjects and subjects with narcolepsy type 1 (NT1 patients) treated with Compound A were evaluated. A summary of the TEAEs for healthy subjects from cohorts 1 and 2 is shown in FIG. 3, for healthy subjects from cohorts S1, S2, 3, and 4 is shown in FIG. 4, and for NT1 patients is shown in FIG. 5.

[3] = intravenous, 11.2 mg, Cmpd A 11.2 mg, Median, Cohort 5, 6, 7
[4] = intravenous, 44.8 mg, Cmpd A 44.8 mg, Geo Mean, Cohort 5, 6, 7
[5] = intravenous, 44.8 mg, Cmpd A 44.8 mg, Mean, Cohort 5, 6, 7
[6] = intravenous, 44.8 mg, Cmpd A 44.8 mg, Median, Cohort 5, 6, 7
[7] = iv, 5 mg, NT1, single 9 h IV infusion, read-out: Plasma concentration, Mean
[8] = iv, 5 mg, NT1, single 9 h IV infusion, read-out: Plasma concentration, Median
[9] = iv, 11.2 mg, NT1, single 9 h IV infusion, read-out: Plasma concentration, Mean
[10] = iv, 11.2 mg, NT1, single 9 h IV infusion, read-out: Plasma concentration, Median
[11] = iv, 44.8 mg, NT1, single 9 h IV infusion, read-out: Plasma concentration, Mean
[12] = iv, 44.8 mg, NT1, single 9 h IV infusion, read-out: Plasma concentration, Median

COC(=O)N1CCC[C@H](NS(C)(=O)=O)[C@@H]1CO[C@H]1CC[C@@H](c2ccccc2)CC1 [Compound A, methyl (2R,3S)-3-((methylsulfonyl)amino)-2-(((cis-4-phenylcyclohexyl)oxy)methyl)piperidine-1-carboxylate]
Tmax [1, 3]: 9 h | AUC [1, 3]: 0.2 µg·h/mL | clearance ([1]; intravenous, 11.2 mg, Cmpd A 11.2 mg, Median, Cohort 5, 6, 7, read-out: CL (converted)): 924 mL/min | concentration at 9 h ([1]; intravenous, 11.2 mg, Cmpd A 11.2 mg, Median, Cohort 5, 6, 7, read-out: Ceoi): 0.0219 µg/mL | AUC(0-inf) [1, 4]: 0.925 µg·h/mL | AUC(0-t) [1, 4]: 0.911 µg·h/mL | Cmax [1, 4]: 0.0965 µg/mL | AUC [1, 4]: 0.911 µg·h/mL | concentration at 9 h ([1]; intravenous, 44.8 mg, Cmpd A 44.8 mg, Geo Mean, Cohort 5, 6, 7, read-out: Ceoi): 0.094 µg/mL | AUC(0-inf) [1, 5]: 0.959 µg·h/mL | AUC(0-t) [1, 5]: 0.941 µg·h/mL | Cmax [1, 5]: 0.0983 µg/mL | Tmax [1, 5]: 6.5 h | AUC [1, 5]: 0.941 µg·h/mL | clearance ([1]; intravenous, 44.8 mg, Cmpd A 44.8 mg, Mean, Cohort 5, 6, 7, read-out: CL (converted)): 836 mL/min | concentration at 9 h ([1]; intravenous, 44.8 mg, Cmpd A 44.8 mg, Mean, Cohort 5, 6, 7, read-out: Ceoi): 0.0963 µg/mL | Vd ([1]; intravenous, 44.8 mg, Cmpd A 44.8 mg, Mean, Cohort 5, 6, 7, read-out: Vss): 117 L | Vd ([1]; intravenous, 44.8 mg, Cmpd A 44.8 mg, Mean, Cohort 5, 6, 7, read-out: Vz): 281 L | AUC(0-inf) [1, 6]: 0.929 µg·h/mL | AUC(0-t) [1, 6]: 0.919 µg·h/mL | Cmax [1, 6]: 0.097 µg/mL | Tmax [1, 6]: 6.5 h | AUC [1, 6]: 0.919 µg·h/mL | clearance ([1]; intravenous, 44.8 mg, Cmpd A 44.8 mg, Median, Cohort 5, 6, 7, read-out: CL (converted)): 809 mL/min | concentration at 9 h ([1]; intravenous, 44.8 mg, Cmpd A 44.8 mg, Median, Cohort 5, 6, 7, read-out: Ceoi): 0.0953 µg/mL | Vd ([1]; intravenous, 44.8 mg, Cmpd A 44.8 mg, Median, Cohort 5, 6, 7, read-out: Vss): 116 L | Vd ([1]; intravenous, 44.8 mg, Cmpd A 44.8 mg, Median, Cohort 5, 6, 7, read-out: Vz): 282 L | concentration at 1 h [1, 7]: 0.00638 µg/mL | concentration at 1 h [1, 8]: 0.00626 µg/mL | concentration at 2 h [1, 7]: 0.00875 µg/mL | concentration at 2 h [1, 8]: 0.00915 µg/mL | concentration at 4 h [1, 7]: 0.0101 µg/mL | concentration at 4 h [1, 8]: 0.00962 µg/mL | concentration at 6 h [1, 7]: 0.00791 µg/mL | concentration at 6 h [1, 8]: 0.00797 µg/mL | concentration at 9 h ([1]; iv, 5 mg, 9 hr, NT1, single 9 h IV infusion, read-out: Plasma concentration, Mean): 0.00964 µg/mL | concentration at 9 h ([1]; iv, 5 mg, 9 hr, NT1, single 9 h IV infusion, read-out: Plasma concentration, Median): 0.00996 µg/mL | concentration at 1 h [1, 9]: 0.0144 µg/mL | concentration at 1 h [1, 10]: 0.0143 µg/mL | concentration at 2 h [1, 9]: 0.0173 µg/mL | concentration at 2 h [1, 10]: 0.0171 µg/mL | concentration at 4 h [1, 9]: 0.0215 µg/mL | concentration at 4 h [1, 10]: 0.0215 µg/mL | concentration at 6 h [1, 9]: 0.0195 µg/mL | concentration at 6 h [1, 10]: 0.0198 µg/mL | concentration at 9 h ([1]; iv, 11.2 mg, 9 hr, NT1, single 9 h IV infusion, read-out: Plasma concentration, Mean): 0.0212 µg/mL | concentration at 9 h ([1]; iv, 11.2 mg, 9 hr, NT1, single 9 h IV infusion, read-out: Plasma concentration, Median): 0.0219 µg/mL | concentration at 1 h [1, 11]: 0.0615 µg/mL | concentration at 1 h [1, 12]: 0.0565 µg/mL | concentration at 2 h [1, 11]: 0.0741 µg/mL | concentration at 2 h [1, 12]: 0.0764 µg/mL | concentration at 4 h [1, 11]: 0.096 µg/mL | concentration at 4 h [1, 12]: 0.0929 µg/mL | concentration at 6 h [1, 11]: 0.09 µg/mL | concentration at 6 h [1, 12]: 0.0883 µg/mL | concentration at 9 h ([1]; iv, 44.8 mg, 9 hr, NT1, single 9 h IV infusion, read-out: Plasma concentration, Mean): 0.0963 µg/mL | concentration at 9 h ([1]; iv, 44.8 mg, 9 hr, NT1, single 9 h IV infusion, read-out: Plasma concentration, Median): 0.0953 µg/mL | clearance ([1]; iv, IV administration, NT1 patients, read-out: mean estimates of plasma clearance): 833 to 950 mL/min | time to reach the plateau of plasma concentration after the start of infusion ([1]; single 9 h IV infusion, 5 to 44.8 mg, NT1 patients): approximately 4 hours | AEs observed in NT1 at the highest dose ([2]; 44.8 mg): Blood pressure increase, heart rate increase, central nervous system (CNS) related symptoms (euphoric mood, hypnagogic hallucination and logorrhea) and salivary hypersecretion were observed | dose dependent effect on BP and heart rate increase ([2]; NT1 subjects, doses up to 44.8 mg): not notable | tolerability ([2]; single dose, slow infusion over 9 hours, up to 44.8 mg, narcolepsy type 1 patients): well-tolerated with no major safety concerns
